Like-named read-outs stand apart in the source and are kept apart here.
Assays:
A-549 = experiment: cells; details: Homo sapiens, A549, 48 h
Experimental: (§1) This form of the assay employs 96 well cell culture microplates of 9 mm diameter (Faircloth, 1988; Mosmann, 1983). Most of the cell lines are obtained from American Type Culture Collection (ATCC) derived from different human cancer types.
(§2) Cells are maintained in RPMI 1640 10% FBS, supplemented with 0.1 g/l penicillin and 0.1 g/l streptomycin sulfate and then incubated at 37° C., 5% CO2 and 98% humidity. For the experiments, cells were harvested from subconfluent cultures using trypsin and resuspended in fresh medium before plating.
(§3) Cells are seeded in 96 well microtiter plates, at 5×10^3 cells per well in aliquots of 195 μl medium, and they are allowed to attach to the plate surface by growing in drug free medium for 18 hours. Afterward, samples are added in aliquots of 5 μl in a ranging from 10 to 10^−8 μg/ml, dissolved in DMSO/EtOH/PBS (0.5:0.5:99). After 48 hours exposure, the antitumor effect are measured by the SRB methodology: cells are fixed by adding 50 μl of cold 50% (wt/vol) trichloroacetic acid (TCA) and incubating for 60 minutes at 4° C. Plates are washed with deionized water and dried. One hundred μl of SRB solution (0.4% wt/vol in 1% acetic acid) is added to each microtiter well and incubated for 10 minutes at room temperature. Unbound SRB is removed by washing with 1% acetic acid. Plates are air dried and bound stain is solubilzed with Tris buffer. Optical densities are read on a automated spectrophotometric plate reader at a single wavelength of 490 nm.
(§4) The values for mean +/− SD of data from triplicate wells are calculated. Some parameters for cellular responses can be calculated: GI=growth inhibition, TGI=total growth inhibition (cytostatic effect) and LC=cell killing (cytotoxic effect).

HT-29 = experiment: cells; details: Homo sapiens, HT-29, 48 h
Experimental: as §1, §2, §3, §4

LoVo = experiment: cells; details: Homo sapiens, LoVo, 48 h; for GI50: read-out: LOVO GI50; for CC50: read-out: LOVO LC50; for IC (TGI): read-out: LOVO TGI
Experimental: as §1, §2, §3, §4

DU-145 = experiment: Inhibition of cells growth by colorimetric assay (SRB); details: Homo sapiens, DU-145, 48 h
Experimental: as §1, §2, §3, §4

HeLa-APL = experiment: as above; details: Homo sapiens, 48 h; for GI50: read-out: HELA-APL GI50; for CC50: read-out: HELA-APL LC50; for IC (TGI): read-out: HELA-APL TGI
Experimental: as §1, §2, §3, §4

HeLa = experiment: as above; details: Homo sapiens, HeLa, 48 h; for GI50: read-out: HELA GI50; for CC50: read-out: HELA LC50; for IC (TGI): read-out: HELA TGI
Experimental: as §1, §2, §3, §4

IGROV-1 = experiment: as above; details: Homo sapiens, IGROV-1, 48 h; for GI50: read-out: IGROV GI50; for CC50: read-out: IGROV LC50; for IC (TGI): read-out: IGROV TGI
Experimental: as §1, §2, §3, §4

K-562 = experiment: as above; details: Homo sapiens, K562, 48 h; for GI50: read-out: K562 GI50; for CC50: read-out: K562 LC50; for IC (TGI): read-out: K562 TGI
Experimental: as §1, §2, §3, §4

LNCaP = experiment: as above; details: Homo sapiens, LNCaP, 48 h
Experimental: as §1, §2, §3, §4

LoVo-Dox = experiment: as above; details: Homo sapiens, 48 h; for GI50: read-out: LOVO-DOX GI50; for CC50: read-out: LOVO-DOX LC50; for IC (TGI): read-out: LOVO-DOX TGI
Experimental: as §1, §2, §3, §4

PANC-1 = experiment: as above; details: Homo sapiens, PANC-1, 48 h; for GI50: read-out: PANC-1 GI50; for CC50: read-out: PANC-1 LC50; for IC (TGI): read-out: PANC-1 TGI
Experimental: as §1, §2, §3, §4

SK-BR-3 = experiment: as above; details: Homo sapiens, SK-BR-3, 48 h
Experimental: as §1, §2, §3, §4

SK-MEL-28 = experiment: as above; details: Homo sapiens, SK-MEL-28, 48 h
Experimental: as §1, §2, §3, §4

IGROV-ET = experiment: as above; details: Homo sapiens, 48 h; for GI50: read-out: IGROV-ET GI50; for CC50: read-out: IGROV-ET LC50; for IC (TGI): read-out: IGROV-ET TGI
Experimental: as §1, §2, §3, §4

CCC(=O)NC1CS[C@@H]2c3c(OC(C)=O)c(C)c4c(c3[C@H](COC1=O)N1C2[C@@H]2N[C@@H](Cc3cc(C)c(OC)c(O)c32)[C@@H]1C#N)OCO4 (stereo partly drawn) [compound 33]
GI50 (A-549; read-out: GI50 A549): 26.2 nM | CC50 (A-549; read-out: LC50 A549): 149 nM | IC (TGI) (A-549; read-out: TGI A549): 62.4 nM | GI50 (HT-29; read-out: GI50 HT29): 17.3 nM | CC50 (HT-29; read-out: LC50 HT29): 9810 nM | IC (TGI) (HT-29; read-out: TGI HT29): 271 nM | GI50 (LoVo): 19.9 nM | CC50 (LoVo): 145 nM | IC (TGI) (LoVo): 53.6 nM | GI50 (DU-145; read-out: GI50 DU145): 8.02 nM | CC50 (DU-145; read-out: LC50 DU145): 4410 nM | IC (TGI) (DU-145; read-out: TGI DU145): 15.6 nM | GI50 (HeLa-APL): 5.24 nM | CC50 (HeLa-APL): 115 nM | IC (TGI) (HeLa-APL): 19.1 nM | GI50 (HeLa): 5.02 nM | CC50 (HeLa): 96.9 nM | IC (TGI) (HeLa): 16.1 nM | GI50 (IGROV-1): 98.5 nM | CC50 (IGROV-1): 1580 nM | IC (TGI) (IGROV-1): 426 nM | GI50 (K-562): 5.49 nM | CC50 (K-562): 2830 nM | IC (TGI) (K-562): 159 nM | GI50 (LNCaP; read-out: GI50 LNCAP): 2.86 nM | CC50 (LNCaP; read-out: LC50 LNCAP): 11.1 nM | IC (TGI) (LNCaP; read-out: TGI LNCAP): 5.64 nM | GI50 (LoVo-Dox): 367 nM | CC50 (LoVo-Dox): 5900 nM | IC (TGI) (LoVo-Dox): 940 nM | GI50 (PANC-1): 19.9 nM | CC50 (PANC-1): 4510 nM | IC (TGI) (PANC-1): 122 nM | GI50 (SK-BR-3; read-out: SK-BR3 GI50): 4.83 nM | CC50 (SK-BR-3; read-out: SK-BR3 LC50): 385 nM | IC (TGI) (SK-BR-3; read-out: SK-BR3 TGI): 13.9 nM | GI50 (SK-MEL-28; read-out: GI50 MEL-28): 12.8 nM | CC50 (SK-MEL-28; read-out: LC50 MEL-28): 97.9 nM | IC (TGI) (SK-MEL-28; read-out: TGI MEL-28): 36.7 nM

C=CCN1[C@@H]2c3c(cc(C)c(OC)c3O)C[C@H]1[C@H](C#N)N1C2[C@@H]2SC[C@]3(NCCc4c3[nH]c3ccccc43)C(=O)OC[C@H]1c1c3c(c(C)c(OC(C)=O)c12)OCO3 (stereo partly drawn) [compound 55]
GI50 (A-549; read-out: A549 GI50): 68.4 nM | CC50 (A-549; read-out: A549 LC50): 1220 nM | IC (TGI) (A-549; read-out: A549 TGI): 286 nM | GI50 (HT-29; read-out: HT29 GI50): 75.7 nM | CC50 (HT-29; read-out: HT29 LC50): 12700 nM | IC (TGI) (HT-29; read-out: HT29 TGI): 1810 nM | GI50 (LoVo): 151 nM | CC50 (LoVo): 837 nM | IC (TGI) (LoVo): 356 nM | GI50 (DU-145; read-out: DU145 GI50): 59 nM | CC50 (DU-145; read-out: DU145 LC50): 12700 nM | IC (TGI) (DU-145; read-out: DU145 TGI): 247 nM | GI50 (HeLa-APL): 111 nM | CC50 (HeLa-APL): 915 nM | IC (TGI) (HeLa-APL): 323 nM | GI50 (HeLa): 148 nM | CC50 (HeLa): 887 nM | IC (TGI) (HeLa): 363 nM | GI50 (IGROV-1): 69.2 nM | CC50 (IGROV-1): 1580 nM | IC (TGI) (IGROV-1): 271 nM | GI50 (IGROV-ET): 248 nM | CC50 (IGROV-ET): 4180 nM | IC (TGI) (IGROV-ET): 624 nM | GI50 (K-562): 58.4 nM | CC50 (K-562): 1040 nM | IC (TGI) (K-562): 272 nM | GI50 (LNCaP; read-out: LNCAP GI50): 17.1 nM | CC50 (LNCaP; read-out: LNCAP LC50): 75.7 nM | IC (TGI) (LNCaP; read-out: LNCAP TGI): 36 nM | GI50 (LoVo-Dox): 333 nM | CC50 (LoVo-Dox): 12700 nM | IC (TGI) (LoVo-Dox): 1570 nM | GI50 (PANC-1): 148 nM | CC50 (PANC-1): 12700 nM | IC (TGI) (PANC-1): 1900 nM | GI50 (SK-MEL-28; read-out: MEL-28 GI50): 88.6 nM | CC50 (SK-MEL-28; read-out: MEL-28 LC50): 698 nM | IC (TGI) (SK-MEL-28; read-out: MEL-28 TGI): 265 nM

COc1c(C)cc2c(c1O)[C@H]1N[C@@H](C2)[C@H](C#N)N2C1[C@@H]1SC[C@]3(NCCc4c3[nH]c3ccccc43)C(=O)OC[C@H]2c2c3c(c(C)c(OC(C)=O)c21)OCO3 (stereo partly drawn) [compound 59]
GI50 (A-549; read-out: A549 GI50): 15.9 nM | CC50 (A-549; read-out: A549 LC50): 273 nM | IC (TGI) (A-549; read-out: A549 TGI): 48.5 nM | GI50 (HT-29; read-out: HT29 GI50): 3.83 nM | CC50 (HT-29; read-out: HT29 LC50): 4280 nM | IC (TGI) (HT-29; read-out: HT29 TGI): 16 nM | GI50 (LoVo): 5.8 nM | CC50 (LoVo): 1190 nM | IC (TGI) (LoVo): 23.3 nM | GI50 (DU-145; read-out: DU145 GI50): 4.09 nM | CC50 (DU-145; read-out: DU145 LC50): 1640 nM | IC (TGI) (DU-145; read-out: DU145 TGI): 10.2 nM | GI50 (HeLa-APL): 3.32 nM | CC50 (HeLa-APL): 59.2 nM | IC (TGI) (HeLa-APL): 7.69 nM | GI50 (HeLa): 2.44 nM | CC50 (HeLa): 10.6 nM | IC (TGI) (HeLa): 5.08 nM | GI50 (IGROV-1): 3.01 nM | CC50 (IGROV-1): 110 nM | IC (TGI) (IGROV-1): 7.33 nM | GI50 (IGROV-ET): 4.48 nM | CC50 (IGROV-ET): 3040 nM | IC (TGI) (IGROV-ET): 107 nM | GI50 (K-562): 1.8 nM | CC50 (K-562): 3290 nM | IC (TGI) (K-562): 9.83 nM | GI50 (LNCaP; read-out: LNCAP GI50): 1.03 nM | CC50 (LNCaP; read-out: LNCAP LC50): 6.43 nM | IC (TGI) (LNCaP; read-out: LNCAP TGI): 2.67 nM | GI50 (LoVo-Dox): 123 nM | CC50 (LoVo-Dox): 3930 nM | IC (TGI) (LoVo-Dox): 709 nM | GI50 (PANC-1): 4.76 nM | CC50 (PANC-1): 3750 nM | IC (TGI) (PANC-1): 42.3 nM | GI50 (SK-MEL-28; read-out: MEL-28 GI50): 3.56 nM | CC50 (SK-MEL-28; read-out: MEL-28 LC50): 3040 nM | IC (TGI) (SK-MEL-28; read-out: MEL-28 TGI): 11 nM

Reference: patent US7767659B2, “Synthesis of naturally occurring ecteinascidins and related compounds” (Pharma Mar, S.A., priority 2002, dated 2010)
